Measured values as given in PMC6010071, “Blocking oestradiol synthesis pathways with potent and selective coumarin derivatives” (Journal of Enzyme Inhibition and Medicinal Chemistry, 2018).
Like-named read-outs stand apart in the source and are kept apart here.

What was measured:
[1] = target: T1, recombinant human HSD1 (Homo sapiens, UniProt P14061); assay: HSD1 inhibition, HPLC assay of [3H]-E1 to [3H]-E2 conversion; format: biochemical; details: for inhibition at 0.1 µM: average of two measurements; for inhibition at 0.1 µM / inhibition at 1 µM: except for compounds 8 and 9; for inhibition at 1 µM: average of three measurements; for IC50: estimated from three measurements at 1 µM, average ± standard error, read-out: HSD1 inhibition ∼ pIC50 (converted)
T1 construct: made in house; host or cells: Sf9 insect cells
T1 sequence (P14061 1-328): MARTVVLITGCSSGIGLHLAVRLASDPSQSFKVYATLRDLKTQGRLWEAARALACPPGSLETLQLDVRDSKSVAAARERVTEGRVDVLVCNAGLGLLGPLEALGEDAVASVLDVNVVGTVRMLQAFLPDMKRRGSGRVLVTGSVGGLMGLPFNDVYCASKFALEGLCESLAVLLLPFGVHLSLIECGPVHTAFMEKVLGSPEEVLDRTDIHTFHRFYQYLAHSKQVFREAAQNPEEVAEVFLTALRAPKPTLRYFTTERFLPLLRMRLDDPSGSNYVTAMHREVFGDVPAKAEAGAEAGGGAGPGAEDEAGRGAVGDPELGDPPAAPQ
Description: The inhibition was determined by HPLC using recombinant human HSD1 and HSD2 proteins as described in a prior study. In short, recombinant human HSD1 and HSD2 were produced in Sf9-insect cells. […] After incubation, the reaction was stopped by addition of […] 10% trichloroacetic acid per sample. […] The ratio of [3H]-E1 converted to [3H]-E2 or vice versa determines the conversion percentage of the samples. Inhibition was measured in three concentrations (100 nM, 1, and 5 µM) in order to follow the progression of inhibition efficiencies. Inhibition efficiencies of the tested inhibitors were calculated by comparing the conversion percentages of the samples including inhibitors with those of conversion controls (without inhibitors).

[2] = target: T2, heterologously expressed human CYP1A2 enzyme (Homo sapiens, UniProt P05177); assay: CYP1A2 inhibition; format: biochemical; details: for IC50: read-out: CYP1A2 inhibition ∼ pIC50 (converted)
T2 construct: purchased Corning Inc., Corning, NY
T2 sequence (P05177 1-516): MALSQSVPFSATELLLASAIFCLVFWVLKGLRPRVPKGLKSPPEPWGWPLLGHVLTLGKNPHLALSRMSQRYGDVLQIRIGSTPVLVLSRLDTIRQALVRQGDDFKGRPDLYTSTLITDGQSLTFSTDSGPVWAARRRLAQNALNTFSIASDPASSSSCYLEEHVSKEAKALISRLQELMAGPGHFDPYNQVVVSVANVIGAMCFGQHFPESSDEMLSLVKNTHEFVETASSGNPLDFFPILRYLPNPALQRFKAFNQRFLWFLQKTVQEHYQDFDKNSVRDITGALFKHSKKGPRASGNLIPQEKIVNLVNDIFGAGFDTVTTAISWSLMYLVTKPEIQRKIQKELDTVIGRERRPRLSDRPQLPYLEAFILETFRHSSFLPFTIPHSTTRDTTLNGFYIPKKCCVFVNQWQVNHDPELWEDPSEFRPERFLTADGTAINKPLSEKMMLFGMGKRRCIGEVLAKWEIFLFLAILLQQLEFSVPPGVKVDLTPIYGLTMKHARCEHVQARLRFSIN
Description: Inhibition of CYP1A2 activity was determined using commercial heterologously expressed human CYP1A2 enzyme (Corning Inc., Corning, NY) essentially as described previously.

[3] = target: T3, recombinant human HSD2 (Homo sapiens, UniProt P37059); assay: HSD2 inhibition, HPLC assay of [3H]-E2 to [3H]-E1 conversion; format: biochemical; details: read-out: HSD2 inhibition at 1 µM
T3 construct: made in house; host or cells: Sf9 insect cells
T3 sequence (P37059 1-387): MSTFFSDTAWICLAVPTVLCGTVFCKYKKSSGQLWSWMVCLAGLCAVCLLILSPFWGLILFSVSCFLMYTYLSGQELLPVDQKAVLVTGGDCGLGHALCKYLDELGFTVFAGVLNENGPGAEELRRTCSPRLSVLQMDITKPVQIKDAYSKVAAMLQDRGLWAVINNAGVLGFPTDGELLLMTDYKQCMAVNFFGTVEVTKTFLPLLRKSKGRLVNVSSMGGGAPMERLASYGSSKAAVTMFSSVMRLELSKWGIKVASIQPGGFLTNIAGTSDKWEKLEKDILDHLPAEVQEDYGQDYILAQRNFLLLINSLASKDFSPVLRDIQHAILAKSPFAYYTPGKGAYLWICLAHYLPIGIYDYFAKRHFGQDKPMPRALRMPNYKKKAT
Description: The inhibition was determined by HPLC using recombinant human HSD1 and HSD2 proteins as described in a prior study. In short, recombinant human HSD1 and HSD2 were produced in Sf9-insect cells. […]. After incubation, the reaction was stopped by addition of […] 10% trichloroacetic acid per sample. After incubation the substrate and the product of enzymatic conversion [3H]-E1 and [3H]-E2 were separated and quantified by HPLC (Alliance 2790, Waters, Milford, MA) connected to an online counter (Packard Flow Scintillation Analyser; Perkin Elmer Inc., Waltham, […]). The ratio of [3H]-E1 converted to [3H]-E2 or vice versa determines the conversion percentage of the samples. Inhibition was measured in three concentrations (100 nM, 1, and 5 µM) in order to follow the progression of inhibition efficiencies. Inhibition efficiencies of the tested inhibitors were calculated by comparing the conversion percentages of the samples including inhibitors with those of conversion controls (without inhibitors).

[4] = target: T4, ERα (Homo sapiens, UniProt P03372); assay: PolarScreen ER Alpha Competitor Assay (fluorescence polarisation); format: binding; details: for IC50: 25 nM ERα, 4.5 nM fluormone, read-out: ER binding pIC50 (converted)
T4 construct: purchased Life Technologies, Carlsbad, CA
T4 sequence (P03372 1-595): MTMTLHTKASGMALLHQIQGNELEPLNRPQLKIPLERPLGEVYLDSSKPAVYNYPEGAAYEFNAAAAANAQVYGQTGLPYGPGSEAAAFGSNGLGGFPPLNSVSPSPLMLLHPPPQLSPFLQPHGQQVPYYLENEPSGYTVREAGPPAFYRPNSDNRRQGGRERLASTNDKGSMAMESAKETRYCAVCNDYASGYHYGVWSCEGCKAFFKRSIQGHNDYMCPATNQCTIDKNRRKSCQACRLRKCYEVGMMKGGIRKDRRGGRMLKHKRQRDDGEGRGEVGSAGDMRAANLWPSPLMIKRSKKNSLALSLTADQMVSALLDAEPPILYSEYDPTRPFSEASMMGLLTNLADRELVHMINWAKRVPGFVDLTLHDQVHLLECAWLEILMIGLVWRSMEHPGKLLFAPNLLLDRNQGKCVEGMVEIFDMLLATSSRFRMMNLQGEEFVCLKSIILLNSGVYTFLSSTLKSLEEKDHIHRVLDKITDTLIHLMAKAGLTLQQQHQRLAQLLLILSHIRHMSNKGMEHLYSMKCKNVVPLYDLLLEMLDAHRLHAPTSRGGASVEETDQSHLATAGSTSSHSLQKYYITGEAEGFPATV
Description: The pIC50 values of the molecules (Table 1) were measured using green PolarScreen™ ER Alpha Competitor Assay (Life Technologies, Carlsbad, CA) kit, following the protocol provided by the manufacturer as previously described. The final concentration of the molecules ranged between 0.0007 and 10,000 nM in the prepared dilution series. […] After mixing the assay plate, it was incubated for 2 h at the room temperature.

[5] = 100 nM, read-out: HSD1 inhibition at 100 nM
[6] = 1 µM, read-out: HSD1 inhibition at 1 µM
[7] = 5 µM, read-out: HSD1 inhibition at 5 µM

Row | SMILES | inhibition at 0.1 µM [1, 5] | inhibition at 1 µM [1, 6] | inhibition at 5 µM [1, 7] | IC50 [1] | CYP1A2 inhibition ∼ pIC50 [2] | inhibition at 1 µM [3] | IC50 [4] | IC50 [2] | ER inhibition (in words) [4] | inhibition at 0.1 µM ([1]; read-out: HSD1 inhibition at 100 nM, 100 nM) | inhibition at 1 µM ([1]; read-out: HSD1 inhibition at 1 µM, 1 µM) | inhibition at 5 µM ([1]; read-out: HSD1 inhibition at 5 µM, 5 µM)
1 | COc1ccc(-c2cc3cccc(O)c3oc2=O)cc1 [Compound 1, 8-hydroxy-3–(4-methoxyphenyl)-2H-chromen-2-one] | 16% | ≥ 68% | 88% | 501 nM | – | 27% | > 10000 nM | 85100 nM | – | – | – | –
2 | COc1ccc2cc(-c3ccc(O)c(F)c3)c(=O)oc2c1 [Compound 6, 3–(3-fluoro-4-hydroxyphenyl)-7-methoxy-2H-chromen-2-one] | 14% | 23% | 27% | 3980 nM | 4.52 | 31% | 708 nM | – | reasonable ER inhibition | – | – | –
3 | O=c1oc2ccc(O)cc2cc1-c1ccc(O)cc1 [Compound 2, 6-hydroxy-3–(4-hydroxyphenyl)-2H-chromen-2-one] | – | – | – | 631 nM | – | 7% | > 10000 nM | 33100 nM | – | 26% | ≥ 68% | 83%

Continued, in another order:

Row | inhibition at 0.1 µM [1, 5] | inhibition at 1 µM [1, 6] | inhibition at 5 µM [1, 7] | IC50 [1] | CYP1A2 inhibition ∼ pIC50 [2] | inhibition at 1 µM [3] | IC50 [4] | IC50 [2] | ER inhibition (in words) [4] | SMILES | inhibition at 0.1 µM ([1]; read-out: HSD1 inhibition at 100 nM, 100 nM) | inhibition at 1 µM ([1]; read-out: HSD1 inhibition at 1 µM, 1 µM) | inhibition at 5 µM ([1]; read-out: HSD1 inhibition at 5 µM, 5 µM)
4 | 16% | 39% | 62% | 1580 nM | 5.82 | 13% | > 10000 nM | – | – | COc1ccc2oc(=O)c(-c3ccc(O)c(F)c3)cc2c1 [Compound 7, 3–(3-fluoro-4-hydroxyphenyl)-6-methoxy-2H-chromen-2-one] | – | – | –
5 | 7% | 47% | 76% | 1260 nM | – | 42% | > 10000 nM | 7080 nM | – | O=c1oc2ccccc2cc1-c1cccc(O)c1 [Compound 3, 3–(3-hydroxyphenyl)-2H-chromen-2-one] | – | – | –
6 | 47% | ≥ 68% | 95% | 158 nM | – | 16% | > 10000 nM | 129 nM | – | O=c1oc2ccc(Cl)cc2cc1-c1cccc(O)c1 [Compound 4, 6-chloro-3–(3-hydroxyphenyl)-2H-chromen-2-one] | – | – | –
